Results: US20170319562A1, “Compositions and Methods for Extended Therapy with Aminopyridines” (Acorda Therapeutics, Inc., priority 2009, published 2017)

Tested on: patients with multiple sclerosis
Assay: MS-F202 Phase 2 double-blind placebo-controlled dose-comparison study
Assay type: in vivo, human
Parameters: change in overall Ashworth score, Mean: scale not given here
Procedure: The Phase 2, dose-ranging study (MS-F202) was a double-blind, randomized, placebo-controlled, parallel group study with dose levels of 4-aminopyridine-SR of 10 mg, 15 mg or 20 mg b.i.d. Patients were titrated to their randomized dose over two weeks; and the fixed-dose treatment phase was 12 weeks in duration. The prospectively defined primary efficacy variable was the percent change from baseline in average walking speed on the T25FW over the last three visits on the assigned stable dose. Other secondary efficacy variables were the other MSFC assessments (9-hole peg test and PASAT 3″), MSFC combined score, LEMMT, the 12-item Multiple Sclerosis Walking Scale (MSWS-12), Multiple Sclerosis Quality of Life Inventory (MSQLI), Ashworth spasticity score, Clinician Global Impression (CGI), and Subject Global Impression (SGI).
In the study MS-F202, the primary efficacy variable was the percent change from baseline in average walking speed measured using the T25FW. The following sections provide details on the different assessments.
A total of 206 patients with multiple sclerosis were randomized and 195 completed treatment (50/52 on 4-aminopyridine-SR 10 mg b.i.d., 49/50 on 15 mg b.i.d., 51/57 on 20 mg b.i.d. and 45/47 on placebo). The prospectively defined primary efficacy variable was the percent change from baseline in average walking speed on the T25FW over the last three visits on the assigned dose (Visits 7-9, the post-titration, stable dose period). The secondary efficacy variable was response, defined as a 20% or greater improvement in walking speed during the 12-week stable-dose double-blind treatment period (i.e. measurements at Visits 7-9). Other secondary efficacy variables were the other MSFC assessments (9-hole peg test and PASAT 3″), MSFC combined score, LEMMT, MSWS-12, MSQLI, Ashworth spasticity score, CGI, and SGI.
This example provides an embodiment of a method of treating subjects with a sustained release 4-aminopyridine formulation and a Responder analysis of the present invention. This was a Phase 2, double-blind, placebo-controlled, parallel group, 20-week treatment study in 206 subjects diagnosed with multiple sclerosis. This study was designed to investigate the safety and efficacy of three dose levels of 4-aminopyridine-SR, 10 mg b.i.d., 15 mg b.i.d., and 20 mg b.i.d. in subjects with clinically definite multiple sclerosis. The primary efficacy endpoint was an increase, relative to baseline, in walking speed, on the Timed 25 Foot Walk. Secondary efficacy measurements included lower extremity manual muscle testing in four groups of lower extremity muscles (hip flexors, knee flexors, knee extensors, and ankle dorsiflexors); the 9-Hole Peg Test and Paced Auditory Serial Addition Test (PASAT 3″); the Ashworth score for spasticity; Spasm Frequency/Severity scores; as well as a Clinician's (CGI) and Subject's (SGI) Global Impressions, a Subject's Global Impression (SGI), the Multiple Sclerosis Quality of Life Inventory (MSQLI) and the 12-Item Multiple Sclerosis Walking Scale (MSW S-12).
At the first visit (Visit 0), subjects were to enter into a two-week single-blind placebo run-in period for the purpose of establishing baseline levels of function. At Visit 2 subjects were to be randomized to one of four treatment groups (Placebo or 4-aminopyridine-SR 10 mg, 15 mg, 20 mg) and begin two weeks of double-blind dose-escalation in the active drug treatment groups (B, C and D). Group A were to receive placebo throughout the study. Subjects in the 10 mg (Group B) arm of the study took a dose of 10 mg approximately every 12 hours during both weeks of the escalation phase. The 15 mg (Group C) and 20 mg (Group D) dose subjects took a dose of 10 mg approximately every 12 hours during the first week of the escalation phase and titrated up to 15 mg b.i.d. in the second week. Subjects were to be instructed to adhere to an “every 12 hour” dosing schedule. […]

[1] = Fampridine Non-responders, 1st stbl
[2] = Fampridine Non-responders, 2nd stbl
[3] = Fampridine Non-responders, 3rd stbl
[4] = Fampridine Non-responders, titration
[5] = Fampridine Responders, 1st stbl
[6] = Fampridine Responders, 2nd stbl
[7] = Fampridine Responders, 3rd stbl
[8] = Fampridine Responders, titration

Nc1ccncc1 [4-aminopyridine]
rate of serious AE's (10 mg bid): 0% | rate of serious AE's (15 mg bid): 10% | rate of serious AE's (20 mg bid): 12% | mean reduction from baseline in Overall Ashworth Score, range over visits (4-aminopyridine Responders, double-blind): −0.18 to −0.11 units | change in overall Ashworth score, Mean [1]: −0.08 | percent change in LEMMT, Mean [1]: 0.10 | percent change in Walking Speed, Mean [1]: 3.5 | change in overall Ashworth score, Mean [2]: −0.07 | percent change in LEMMT, Mean [2]: 0.09 | percent change in Walking Speed, Mean [2]: −0.2 | change in overall Ashworth score, Mean [3]: 0.00 | percent change in LEMMT, Mean [3]: 0.10 | percent change in Walking Speed, Mean [3]: −6.5 | change in overall Ashworth score, Mean [4]: −0.16 | percent change in LEMMT, Mean [4]: 0.12 | percent change in Walking Speed, Mean [4]: 8.3 | change in overall Ashworth score, Mean [5]: −0.18 | percent change in LEMMT, Mean [5]: 0.09 | percent change in Walking Speed, Mean [5]: 24.6 | change in overall Ashworth score, Mean [6]: −0.11 | percent change in LEMMT, Mean [6]: 0.09 | percent change in Walking Speed, Mean [6]: 29.0 | change in overall Ashworth score, Mean [7]: −0.18 | percent change in LEMMT, Mean [7]: 0.17 | percent change in Walking Speed, Mean [7]: 27.3 | change in overall Ashworth score, Mean [8]: −0.14 | percent change in LEMMT, Mean [8]: 0.18 | percent change in Walking Speed, Mean [8]: 27.4 | post hoc Responder rate (consistently faster walking speeds on drug) (combined/pooled 4-aminopyridine-SR groups): approximately 37%
